Laboratory results from ChEMBL document CHEMBL4507274 (2021).

Columns and labels:
Details in all cases: Compound concentration 100.0 nM
[1] = target: Cyclin-dependent kinase 15 (Homo sapiens) (UniProt Q96Q40)
[2] = target: T1, Serine/threonine-protein kinase Chk1 (Homo sapiens) (UniProt O14757)
T1 sequence (whole entry): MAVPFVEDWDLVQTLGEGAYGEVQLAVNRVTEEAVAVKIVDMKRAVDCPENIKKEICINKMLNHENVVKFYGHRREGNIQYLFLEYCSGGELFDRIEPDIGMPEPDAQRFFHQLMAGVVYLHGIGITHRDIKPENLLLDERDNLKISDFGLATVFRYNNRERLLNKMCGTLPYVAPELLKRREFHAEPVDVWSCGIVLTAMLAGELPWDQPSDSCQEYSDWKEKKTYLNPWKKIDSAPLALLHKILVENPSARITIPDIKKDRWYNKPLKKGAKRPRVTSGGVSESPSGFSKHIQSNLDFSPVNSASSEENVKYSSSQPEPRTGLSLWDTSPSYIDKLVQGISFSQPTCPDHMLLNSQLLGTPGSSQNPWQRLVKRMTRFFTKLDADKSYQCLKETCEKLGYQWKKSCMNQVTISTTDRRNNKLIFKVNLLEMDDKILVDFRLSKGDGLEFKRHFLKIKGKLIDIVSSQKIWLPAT

[3] = target: Ribosomal protein S6 kinase alpha-5 (Homo sapiens) (UniProt O75582)
[4] = system: Phosphatidylinositol 4,5-bisphosphate 3-kinase catalytic subunit alpha isoform (Homo sapiens), P42336 [I800L]
[5] = target: Ephrin type-A receptor 6 (Homo sapiens) (UniProt Q9UF33)
[6] = system: Phosphatidylinositol 4,5-bisphosphate 3-kinase catalytic subunit alpha isoform (Homo sapiens), P42336 [E542K]
[7] = target: Tyrosine-protein kinase ITK/TSK (Homo sapiens) (UniProt Q08881)
[8] = target: Serine/threonine-protein kinase 38 (Homo sapiens) (UniProt Q15208)
[9] = target: T2, MAP kinase-activated protein kinase 5 (Homo sapiens) (UniProt Q8IW41)
T2 sequence (whole entry): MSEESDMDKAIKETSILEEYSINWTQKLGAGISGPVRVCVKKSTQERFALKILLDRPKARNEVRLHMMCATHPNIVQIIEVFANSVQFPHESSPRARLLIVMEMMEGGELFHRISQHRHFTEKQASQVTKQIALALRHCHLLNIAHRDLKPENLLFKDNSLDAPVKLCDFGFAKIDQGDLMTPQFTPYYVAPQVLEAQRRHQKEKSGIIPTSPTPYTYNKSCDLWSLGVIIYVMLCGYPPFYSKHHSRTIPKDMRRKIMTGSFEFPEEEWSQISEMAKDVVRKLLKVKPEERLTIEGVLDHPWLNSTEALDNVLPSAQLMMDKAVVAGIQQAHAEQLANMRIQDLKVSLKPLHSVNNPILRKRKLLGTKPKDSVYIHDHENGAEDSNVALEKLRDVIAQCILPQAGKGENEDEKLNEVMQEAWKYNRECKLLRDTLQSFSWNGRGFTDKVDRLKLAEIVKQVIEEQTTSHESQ

[10] = target: Microtubule-associated serine/threonine-protein kinase 1 (Homo sapiens) (UniProt Q9Y2H9)
[11] = target: STE20/SPS1-related proline-alanine-rich protein kinase (Homo sapiens) (UniProt Q9UEW8)
[12] = target: Aurora kinase B (Homo sapiens) (UniProt Q96GD4)
[13] = target: Mitogen-activated protein kinase kinase kinase 4 (Homo sapiens) (UniProt Q9Y6R4)
[14] = target: Casein kinase II subunit alpha' (Homo sapiens) (UniProt P19784)
Casein kinase II subunit alpha' (Homo sapiens), sequence (P19784 whole entry, looked up): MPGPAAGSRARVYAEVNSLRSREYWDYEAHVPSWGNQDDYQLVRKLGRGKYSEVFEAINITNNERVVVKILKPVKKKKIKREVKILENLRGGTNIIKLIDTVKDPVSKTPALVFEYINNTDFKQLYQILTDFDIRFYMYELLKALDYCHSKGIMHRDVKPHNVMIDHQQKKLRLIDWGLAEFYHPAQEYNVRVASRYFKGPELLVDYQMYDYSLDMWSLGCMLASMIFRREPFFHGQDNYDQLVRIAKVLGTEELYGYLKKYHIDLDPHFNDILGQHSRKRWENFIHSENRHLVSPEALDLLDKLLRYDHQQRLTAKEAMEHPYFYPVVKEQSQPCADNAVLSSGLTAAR

[15] = target: Serine/threonine-protein kinase 16 (Homo sapiens) (UniProt O75716)
[16] = target: Serine/threonine-protein kinase tousled-like 1 (Homo sapiens) (UniProt Q9UKI8)
Serine/threonine-protein kinase tousled-like 1 (Homo sapiens), sequence (Q9UKI8 whole entry): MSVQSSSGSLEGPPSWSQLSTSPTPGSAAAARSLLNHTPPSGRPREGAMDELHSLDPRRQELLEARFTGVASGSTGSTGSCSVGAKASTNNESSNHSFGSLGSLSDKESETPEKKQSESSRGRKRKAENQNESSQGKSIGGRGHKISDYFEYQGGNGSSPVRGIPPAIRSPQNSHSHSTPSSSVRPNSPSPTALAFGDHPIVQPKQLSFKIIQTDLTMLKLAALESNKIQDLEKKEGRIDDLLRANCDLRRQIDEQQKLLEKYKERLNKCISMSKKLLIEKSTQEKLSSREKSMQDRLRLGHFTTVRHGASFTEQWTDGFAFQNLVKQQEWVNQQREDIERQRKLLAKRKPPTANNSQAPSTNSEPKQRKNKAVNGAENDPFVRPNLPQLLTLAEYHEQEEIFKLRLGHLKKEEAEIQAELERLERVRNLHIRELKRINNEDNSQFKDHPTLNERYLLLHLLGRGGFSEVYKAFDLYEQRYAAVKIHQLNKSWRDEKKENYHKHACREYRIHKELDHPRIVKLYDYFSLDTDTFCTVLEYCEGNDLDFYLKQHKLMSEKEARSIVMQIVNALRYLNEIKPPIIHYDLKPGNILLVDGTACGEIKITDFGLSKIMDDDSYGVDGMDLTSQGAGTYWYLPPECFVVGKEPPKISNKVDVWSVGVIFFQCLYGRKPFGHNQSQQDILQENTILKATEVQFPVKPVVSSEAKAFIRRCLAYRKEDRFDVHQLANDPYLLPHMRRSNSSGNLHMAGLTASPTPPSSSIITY

[17] = target: Dual specificity mitogen-activated protein kinase kinase 2 (Homo sapiens) (UniProt P36507)
[18] = target: Serine/threonine-protein kinase 24 (Homo sapiens) (UniProt Q9Y6E0)
[19] = target: SRSF protein kinase 2 (Homo sapiens) (UniProt P78362)
SRSF protein kinase 2 (Homo sapiens), sequence (P78362 whole entry, looked up): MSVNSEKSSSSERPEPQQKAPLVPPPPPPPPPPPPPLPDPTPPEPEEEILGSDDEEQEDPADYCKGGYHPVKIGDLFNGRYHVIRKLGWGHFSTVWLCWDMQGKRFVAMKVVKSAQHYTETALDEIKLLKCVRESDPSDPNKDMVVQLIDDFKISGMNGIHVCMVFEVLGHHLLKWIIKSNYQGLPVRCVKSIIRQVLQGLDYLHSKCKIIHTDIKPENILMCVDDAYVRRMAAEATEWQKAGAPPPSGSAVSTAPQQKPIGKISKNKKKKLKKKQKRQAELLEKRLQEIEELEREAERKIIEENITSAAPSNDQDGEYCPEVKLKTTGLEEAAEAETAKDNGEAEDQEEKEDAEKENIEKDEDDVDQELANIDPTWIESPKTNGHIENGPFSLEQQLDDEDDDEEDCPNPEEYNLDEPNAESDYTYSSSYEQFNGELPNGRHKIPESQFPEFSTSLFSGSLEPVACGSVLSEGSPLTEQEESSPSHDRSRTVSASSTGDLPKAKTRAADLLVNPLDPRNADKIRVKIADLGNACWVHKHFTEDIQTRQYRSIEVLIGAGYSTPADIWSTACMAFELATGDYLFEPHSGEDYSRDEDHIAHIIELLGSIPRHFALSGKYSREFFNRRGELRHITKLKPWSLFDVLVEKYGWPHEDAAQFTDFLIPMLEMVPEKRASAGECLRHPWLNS

[20] = target: Serine/threonine-protein kinase MRCK gamma (Homo sapiens) (UniProt Q6DT37)
[21] = target: Interleukin-1 receptor-associated kinase 4 (Homo sapiens) (UniProt Q9NWZ3)
[22] = target: Mitogen-activated protein kinase kinase kinase 14 (Homo sapiens) (UniProt Q99558)
[23] = target: Serine/threonine-protein kinase 17A (Homo sapiens) (UniProt Q9UEE5)
Serine/threonine-protein kinase 17A (Homo sapiens), sequence (Q9UEE5 whole entry): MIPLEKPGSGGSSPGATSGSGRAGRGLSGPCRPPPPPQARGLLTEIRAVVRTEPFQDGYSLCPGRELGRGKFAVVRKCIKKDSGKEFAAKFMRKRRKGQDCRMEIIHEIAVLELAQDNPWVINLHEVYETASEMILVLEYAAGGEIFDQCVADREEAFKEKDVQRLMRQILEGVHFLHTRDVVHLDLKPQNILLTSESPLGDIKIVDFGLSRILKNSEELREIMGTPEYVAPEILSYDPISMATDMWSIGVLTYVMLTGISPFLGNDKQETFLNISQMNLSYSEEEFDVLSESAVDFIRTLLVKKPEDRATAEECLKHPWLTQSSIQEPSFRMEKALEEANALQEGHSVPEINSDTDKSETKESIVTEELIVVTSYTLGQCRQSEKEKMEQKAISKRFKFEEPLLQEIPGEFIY

[24] = target: Atypical kinase COQ8B, mitochondrial (Homo sapiens) (UniProt Q96D53)
[25] = target: Ribosomal protein S6 kinase alpha-6 (Homo sapiens) (UniProt Q9UK32)
Ribosomal protein S6 kinase alpha-6 (Homo sapiens), sequence (Q9UK32 whole entry, canonical isoform): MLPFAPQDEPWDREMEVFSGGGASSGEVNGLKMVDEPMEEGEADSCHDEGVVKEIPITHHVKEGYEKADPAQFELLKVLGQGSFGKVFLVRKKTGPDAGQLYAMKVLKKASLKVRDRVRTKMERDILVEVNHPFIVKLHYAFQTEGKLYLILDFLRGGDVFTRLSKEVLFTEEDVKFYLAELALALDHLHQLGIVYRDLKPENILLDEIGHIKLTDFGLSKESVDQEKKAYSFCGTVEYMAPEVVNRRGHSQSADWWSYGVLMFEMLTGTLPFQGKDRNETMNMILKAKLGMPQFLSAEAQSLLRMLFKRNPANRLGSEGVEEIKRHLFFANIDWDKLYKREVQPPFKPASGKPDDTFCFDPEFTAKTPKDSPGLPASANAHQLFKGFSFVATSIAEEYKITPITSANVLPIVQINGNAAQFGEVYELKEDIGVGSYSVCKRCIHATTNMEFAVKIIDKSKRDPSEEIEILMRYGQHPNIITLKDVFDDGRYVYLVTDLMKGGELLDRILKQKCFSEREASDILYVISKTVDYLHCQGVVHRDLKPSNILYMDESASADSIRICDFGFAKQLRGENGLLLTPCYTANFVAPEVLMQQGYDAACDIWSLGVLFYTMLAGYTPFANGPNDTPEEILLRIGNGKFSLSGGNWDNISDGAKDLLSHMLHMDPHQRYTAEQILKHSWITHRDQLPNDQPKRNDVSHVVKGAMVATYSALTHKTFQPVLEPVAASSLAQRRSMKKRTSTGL

[26] = target: Phosphorylase b kinase gamma catalytic chain, skeletal muscle/heart isoform (Homo sapiens) (UniProt Q16816)
Phosphorylase b kinase gamma catalytic chain, skeletal muscle/heart isoform (Homo sapiens), sequence (Q16816 whole entry, looked up, canonical isoform): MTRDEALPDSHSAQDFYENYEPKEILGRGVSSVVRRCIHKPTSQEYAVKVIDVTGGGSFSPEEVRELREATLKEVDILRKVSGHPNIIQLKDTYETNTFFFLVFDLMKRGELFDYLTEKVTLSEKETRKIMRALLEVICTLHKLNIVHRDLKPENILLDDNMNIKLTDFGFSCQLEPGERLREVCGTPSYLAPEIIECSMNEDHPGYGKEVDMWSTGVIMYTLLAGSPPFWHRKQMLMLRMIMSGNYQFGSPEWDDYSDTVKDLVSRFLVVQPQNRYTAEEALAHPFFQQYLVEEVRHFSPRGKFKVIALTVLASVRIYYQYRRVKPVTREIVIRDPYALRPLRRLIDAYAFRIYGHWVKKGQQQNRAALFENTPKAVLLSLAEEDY

[27] = target: Phosphatidylinositol 3-kinase catalytic subunit type 3 (Homo sapiens) (UniProt Q8NEB9)
[28] = target: Ephrin type-A receptor 8 (Homo sapiens) (UniProt P29322)
Ephrin type-A receptor 8 (Homo sapiens), sequence (P29322 whole entry): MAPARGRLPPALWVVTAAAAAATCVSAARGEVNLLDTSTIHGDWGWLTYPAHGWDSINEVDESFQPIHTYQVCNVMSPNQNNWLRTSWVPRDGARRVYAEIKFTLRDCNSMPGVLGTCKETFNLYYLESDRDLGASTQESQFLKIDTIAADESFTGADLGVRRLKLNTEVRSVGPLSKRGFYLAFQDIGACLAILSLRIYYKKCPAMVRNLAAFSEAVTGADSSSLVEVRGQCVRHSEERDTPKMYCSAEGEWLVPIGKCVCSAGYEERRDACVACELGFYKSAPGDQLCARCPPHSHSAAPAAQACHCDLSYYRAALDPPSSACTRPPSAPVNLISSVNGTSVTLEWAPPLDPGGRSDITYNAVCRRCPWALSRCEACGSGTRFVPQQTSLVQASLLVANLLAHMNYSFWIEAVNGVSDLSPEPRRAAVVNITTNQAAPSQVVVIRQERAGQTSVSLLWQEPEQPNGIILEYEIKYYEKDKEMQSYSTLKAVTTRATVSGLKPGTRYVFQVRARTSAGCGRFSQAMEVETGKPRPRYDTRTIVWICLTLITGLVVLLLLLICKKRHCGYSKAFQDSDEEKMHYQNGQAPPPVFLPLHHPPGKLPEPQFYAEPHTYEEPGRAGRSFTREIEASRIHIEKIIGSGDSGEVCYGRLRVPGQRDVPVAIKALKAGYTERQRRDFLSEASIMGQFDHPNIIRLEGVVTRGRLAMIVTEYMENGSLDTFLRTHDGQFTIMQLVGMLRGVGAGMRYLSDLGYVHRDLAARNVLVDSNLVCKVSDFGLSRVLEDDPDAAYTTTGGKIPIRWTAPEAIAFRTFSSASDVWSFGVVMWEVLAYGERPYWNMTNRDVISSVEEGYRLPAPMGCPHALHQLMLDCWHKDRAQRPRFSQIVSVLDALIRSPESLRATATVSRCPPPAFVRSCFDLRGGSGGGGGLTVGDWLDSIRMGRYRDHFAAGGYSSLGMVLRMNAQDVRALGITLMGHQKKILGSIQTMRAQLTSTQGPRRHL

[29] = target: Proto-oncogene tyrosine-protein kinase ROS (Homo sapiens) (UniProt P08922)
[30] = target: SRSF protein kinase 1 (Homo sapiens) (UniProt Q96SB4)
[31] = system: Tyrosine-protein kinase ABL1 (Homo sapiens), P00519 [T315I]
[32] = target: Calcium/calmodulin-dependent protein kinase kinase 1 (Homo sapiens) (UniProt Q8N5S9)
Calcium/calmodulin-dependent protein kinase kinase 1 (Homo sapiens), sequence (Q8N5S9 whole entry, looked up): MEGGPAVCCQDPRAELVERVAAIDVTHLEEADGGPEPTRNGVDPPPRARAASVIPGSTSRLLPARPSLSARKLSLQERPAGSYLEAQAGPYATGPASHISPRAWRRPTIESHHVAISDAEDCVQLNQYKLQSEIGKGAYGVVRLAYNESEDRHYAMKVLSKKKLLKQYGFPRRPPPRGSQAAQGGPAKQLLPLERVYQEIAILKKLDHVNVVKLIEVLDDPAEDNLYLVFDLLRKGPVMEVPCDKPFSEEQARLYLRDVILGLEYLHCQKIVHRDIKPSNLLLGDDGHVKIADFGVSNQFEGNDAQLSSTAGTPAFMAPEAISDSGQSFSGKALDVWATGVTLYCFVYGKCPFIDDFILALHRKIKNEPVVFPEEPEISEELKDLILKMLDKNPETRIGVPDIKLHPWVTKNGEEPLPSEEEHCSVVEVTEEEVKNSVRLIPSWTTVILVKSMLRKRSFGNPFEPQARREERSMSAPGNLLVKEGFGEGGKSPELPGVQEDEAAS

Measured: residual activity

Cc1c[nH]c2nccc(Oc3c(F)cc(Nc4cc(Cl)nc(N)n4)cc3F)c12 [BAY-549]
inactive: [1] 76% | [2] 100% | [3] 100% | [4] 90% | [5] 100% | [6] 85% | [7] 81% | [8] 89% | [9] 81% | [10] 100% | [11] 94% | [12] 82% | [13] 100% | [14] 86% | [15] 87% | [16] 100% | [17] 91% | [18] 100% | [19] 75% | [20] 68% | [21] 85% | [22] 92% | [23] 100% | [24] 88% | [25] 95% | [26] 100% | [27] 67% | [28] 87% | [29] 96% | [30] 100% | [31] 80% | [32] 99%

Cn1cc(Cl)c2c(Oc3c(F)cc(Nc4cc(Cl)nc(N)n4)cc3F)ccnc21 [BAY-4900]
inactive: [1] 94% | [2] 100% | [3] 100% | [4] 82% | [5] 100% | [6] 89% | [7] 97% | [8] 87% | [9] 100% | [10] 100% | [11] 100% | [12] 78% | [13] 100% | [14] 89% | [15] 100% | [16] 100% | [17] 100% | [18] 100% | [19] 78% | [20] 100% | [21] 90% | [22] 100% | [23] 94% | [24] 89% | [25] 72% | [26] 100% | [27] 75% | [28] 100% | [29] 100% | [30] 85% | [31] 84% | [32] 100%
